Assay results published in patent US20230021483A1, “[…] […] METHOD AND CLASSIFICATION OF PHARMACEUTICAL COMPONENTS BY USING TRANSCRIPTOMES” (National Institutes of Biomedical Innovation, Health and …, priority 2016, published 2023).
“Also recorded” adds a separate entry of the source.

Columns and labels:
[1] = system: preferentially upregulated genes in LV, SP, LN; experiment: Z-score-based differential gene expression analysis (adjuvant group- or adjuvant-associated genes, 40 module mapping, TargetMine annotation); assay type: in vivo, C57BL/6 mice
Procedure, shortened: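 Per-sample fold-change values converted to gene-wise z-scores within each organ's data set, then triplicate z-scores summed per adjuvant. Genes with summed score >3 taken as preferentially expressed; gene groups defined by combined per-adjuvant z-score thresholds (z>1 to z>3) specific to each organ.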

[2] = system: inguinal lymph nodes (LN); experiment: Whole organ transcriptome (GeneChip microarray) of draining inguinal lymph nodes 6 h after adjuvant administration: sDEGs, gene modules, hierarchical clustering; assay type: in vivo, C57BL/6 mice; on adjuvant group (cluster) in LN: key: G1 (interferon signaling); G2 (metabolism of lipids and lipoproteins); G3 (response to stress); G4 (response to wounding); G5 (phosphate-containing compound metabolic process); G6 (phagosome)

## Nc1nc2c(ncn2[C@@H]2O[C@@H]3COP(=O)(O)O[C@H]4[C@@H](O)[C@H](n5cnc6c(=O)[nH]c(N)nc65)O[C@@H]4COP(=O)(O)O[C@H]3[C@H]2O)c(=O)[nH]1 [cdiGMP, Cyclic diguanylate monophosphate]
[1]; ID, LV, sample x3
  Tdrd7 1426716_at (Group G1, Modules 20): 2.22
  Tor1aip2 1418115_s_at (Group G1, Modules 20): 2.42
  Tor1aip2 1418116_at (Group G1, Modules 20): 2.19
  Tor1aip2 1435526_at (Group G1, Modules 20): 1.54
  Trim12a 1437432_a_at (Group G1, Modules 20): 1.46
  Uba7 1426970_a_at (Group G1, Modules 20): 1.41
[1]; LN, z-scores and 40 module mapping
  interferon induction relative to adjuvants targeting the same receptor: strongest interferon inducer; also recorded: induced more interferon responses in vivo than the other sting ligands
[1]; among cdiGMP/cGAMP/DMXAA, LN
  preference, 1417252_at Ptgs2: cdiGMP
  preference, 1417263_at Ptgs2: cdiGMP
  preference, 1418424_at Tnfaip6: cdiGMP
  preference, 1419132_at Tfr2: cdiGMP
  preference, 1419508_at Ripk1: cdiGMP
  preference, 1419534_at Olr1: cdiGMP
  preference, 1419721_at Niacr1: cdiGMP
  preference, 1421457_a_at Samsn1: cdiGMP
  preference, 1421473_at Il1a: cdiGMP
  preference, 1421578_at Ccl4: cdiGMP
  preference, 1421679_a_at Cdkn1a: cdiGMP
  preference, 1422054_a_at 5kil: cdiGMP
  preference, 1422305_at Ifnb1: cdiGMP
  preference, 1423028_at Ifna2: cdiGMP
  preference, 1424638_at Cdkn1a: cdiGMP
  preference, 1425687_at Cflar: cdiGMP
  preference, 1425837_a_at Ccrn4l: cdiGMP
  preference, 1427736_a_at Ccrl2: cdiGMP
  preference, 1428027_at LOC100653389: cdiGMP
  preference, 1428735_at Cd69: cdiGMP
  preference, 1433508_at Klf6: cdiGMP
  preference, 1434350_at Csrnp1: cdiGMP
  preference, 1436387_at C330006P03Rik///Homer1: cdiGMP
  preference, 1439349_at Sbno2: cdiGMP
  preference, 1439680_at Tnfsf10: cdiGMP
  preference, 1439981_at Tespa1: cdiGMP
  preference, 1441843_s_at 5230400M03Rik: cdiGMP
  preference, 1442556_at ---: cdiGMP
  preference, 1443414_at C78513: cdiGMP
  preference, 1444010_at Eif4e: cdiGMP
  preference, 1444598_at ---: cdiGMP
  preference, 1445534_at ---: cdiGMP
  preference, 1446245_at ---: cdiGMP
  preference, 1448325_at Ppp1r15a: cdiGMP
  preference, 1448724_at Cish: cdiGMP
  preference, 1449169_at Has2: cdiGMP
  preference, 1449311_at Bach1: cdiGMP
  preference, 1450297_at Il6: cdiGMP
  preference, 1451340_at Arid5a: cdiGMP
  preference, 1453636_at Pcgf5: cdiGMP
  preference, 1453851_a_at Gadd45g: cdiGMP
  preference, 1455197_at Rnd1: cdiGMP
  preference, 1455899_x_at Socs3: cdiGMP
  preference, 1457404_at Nfkbiz: cdiGMP
  preference, 1457888_at ---: cdiGMP
  preference, 1457944_at ---: cdiGMP
  preference, 1458376_at B930025B16Rik: cdiGMP
  preference, 1458589_at ---: cdiGMP
  preference, 1459144_at ---: cdiGMP
[1]; z-score selected genes, TargetMine and IPA upstream cytokine analyses
  adjuvant group-associated biological features: strongly associated with type I and type II interferon responses
[2]; LN, 6 h
  module M40^LN (immune system process; dendritic cells, macrophages, neutrophils, stromal cells): strongly induced
[2]; hierarchical clustering, lymph node
  adjuvant group (cluster) in LN: G1
